The record followed here is patent publication US12396458B2, “Fused ring substituted aromatic compound and preparation method therefor, herbicidal composition, and use thereof” (Qingdao Kingagroot Chemical Compound Co., Ltd., priority 2020, dated 2025).

Common to all, as to assay: Weeding effect in post-emergence stage (greenhouse pot test)
What all share (type): in vivo

The test system of experiment [1] is Beckmannia syzigachne. The settings on record: dose 15 g a.i./ha, 3 weeks after application, fresh weight control rate. In short, it runs like this:
(§1)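 Greenhouse pot plants sprayed at 2-3 leaf stage (2 weeks after sowing) with compound in acetone/Tween 80 plus 1.5 L/ha methyl oleate EC, at 500, 250, 125, 60, 15, 7.5 g a.i./ha. Fresh-weight growth control scored 3 weeks later on a 0-5 scale (level 5 >85%, level 0 <5%); three replicates averaged.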

The test system of experiment [2] is Capsella bursa-pastoris. The settings on record: dose 15 g a.i./ha, 3 weeks after application, fresh weight control rate. In short, it runs like this:
as §1

In experiment [3] the test system is Digitaria sanguinalis. The settings on record: dose 7.5 g a.i./ha, fresh weight control rate. In short, it runs like this: as §1
The subject of experiment [4] is Setaria viridis. The settings on record: dose 7.5 g a.i./ha, fresh weight control rate. In a few lines: as §1
Experiment [5] concerns Alopecurus japonicus. Particulars: dose 15 g a.i./ha, 3 weeks after application, fresh weight control rate. In a few lines: as §1
Experiment [6] has as its system Conyza japonica. Particulars: fresh weight control rate. In a few lines: as §1
In experiment [7] the test system is Eleusine indica. The settings on record: dose 7.5 g a.i./ha, fresh weight control rate. In a few lines:
as §1

In experiment [8] the test system is Rorippa indica. The settings on record: dose 7.5 g a.i./ha, fresh weight control rate. In short, it runs like this:
as §1

Where [9] appears, read: post-emergence control test, dose 7.5 g a.i./ha.
Setting [10] is: post-emergence, dose 15 g a.i./ha, 3 weeks after application.

As for `CCOC(=O)C12CCCC1C(c1cc(-n3c(=O)n(C)c(=S)n(C)c3=O)c(F)cc1Cl)=NO2` (centres unmarked) [Compound 3], the “Activity level (growth control rate), Beckmannia syzigachne” value (“Activity level … Beckmannia syzigachne” for short) in experiment [1] is reported as 5 (Level 5: growth control rate is above 85%). For the same compound, the “Activity level (growth control rate), Capsella bursa-pastoris” value (shortened to “Activity level … Capsella bursa-pastoris”) in experiment [2] is 5 (Level 5: growth control rate is above 85%). Also, in experiment [3], the “Activity level (growth control rate), Digitaria sanguinalis” value (from here on “Activity level … Digitaria sanguinalis”) was 4 (Level 4: growth control rate is greater than or equal to 60% and less than 85%). In experiment [4], the “Activity level (growth control rate), Setaria viridis” value (shortened to “Activity level … Setaria viridis”) is 4 (Level 4: growth control rate is greater than or equal to 60% and less than 85%). Also, the “Activity level (growth control rate), Alopecurus japonicus” value (from here on “Activity level … Alopecurus japonicus”) in experiment [5] is reported as 5 (Level 5: growth control rate is above 85%). Further, the “Activity level (growth control rate), Conyza japonica” value (from here on “Activity level … Conyza japonica”) was 3 (Level 3: growth control rate is greater than or equal to 40% and less than 60%) in experiment [6] (setting [9]); 4 (Level 4: growth control rate is greater than or equal to 60% and less than 85%) in experiment [6] (setting [10]). Moreover, the “Activity level (growth control rate), Eleusine indica” value (“Activity level … Eleusine indica” for short) in experiment [7] is 4 (Level 4: growth control rate is greater than or equal to 60% and less than 85%). Moreover, the “Activity level (growth control rate), Rorippa indica” value (“Activity level … Rorippa indica” for short) in experiment [8] is 5 (Level 5: growth control rate is above 85%).

`CCOC(=O)C1(C)CC(c2cc(-n3c(=O)cc(C(F)(F)F)n(C)c3=O)c(F)cc2Cl)=NO1` (centres unmarked) [Control compound B, reference compound]: the “Activity level … Digitaria sanguinalis” value in experiment [3] is 2 (Level 2: growth control rate is greater than or equal to 20% and less than 40%). Moreover, the “Activity level … Setaria viridis” value in experiment [4] was 3 (Level 3: growth control rate is greater than or equal to 40% and less than 60%). Besides, the “Activity level … Conyza japonica” value in experiment [6] (setting [9]) is 2 (Level 2: growth control rate is greater than or equal to 20% and less than 40%). Moreover, in experiment [7], the “Activity level … Eleusine indica” value was 3 (Level 3: growth control rate is greater than or equal to 40% and less than 60%). For the same compound, in experiment [8], the “Activity level … Rorippa indica” value is 2 (Level 2: growth control rate is greater than or equal to 20% and less than 40%).

Turning to `Cn1c(C(F)(F)F)cc(=O)n(-c2cc(C3=NOC4(C(=O)O)CCCC34)c(Cl)cc2F)c1=O` (centres unmarked) [Compound 213], the “Activity level … Beckmannia syzigachne” value in experiment [1] is listed as 5 (Level 5: growth control rate is above 85%). Moreover, in experiment [2], the “Activity level … Capsella bursa-pastoris” value was 5 (Level 5: growth control rate is above 85%). In experiment [5], the “Activity level … Alopecurus japonicus” value is listed as 5 (Level 5: growth control rate is above 85%). For the same compound, the “Activity level … Conyza japonica” value in experiment [6] (setting [10]) is 4 (Level 4: growth control rate is greater than or equal to 60% and less than 85%).

In the case of `CCOC(=O)C12ON=C(c3cc(-n4c(=O)cc(C(F)(F)F)n(C)c4=O)c(F)cc3Cl)C1CCC2Br` (centres unmarked) [Compound 474], the “Activity level … Beckmannia syzigachne” value in experiment [1] is 4 (Level 4: growth control rate is greater than or equal to 60% and less than 85%). Also, the “Activity level … Capsella bursa-pastoris” value in experiment [2] is 5 (Level 5: growth control rate is above 85%). Besides, the “Activity level … Alopecurus japonicus” value in experiment [5] was 4 (Level 4: growth control rate is greater than or equal to 60% and less than 85%). Besides, the “Activity level … Conyza japonica” value in experiment [6] (setting [10]) was 4 (Level 4: growth control rate is greater than or equal to 60% and less than 85%).

On to `COC(=O)C12CCCC1C(c1cc(N3C(=O)C4=C(CCCC4)C3=O)c(F)cc1Cl)=NO2` (centres unmarked) [Compound 542], for which the “Activity level … Beckmannia syzigachne” value in experiment [1] is 4 (Level 4: growth control rate is greater than or equal to 60% and less than 85%). For the same compound, the “Activity level … Capsella bursa-pastoris” value in experiment [2] was 4 (Level 4: growth control rate is greater than or equal to 60% and less than 85%). The “Activity level … Alopecurus japonicus” value in experiment [5] was 5 (Level 5: growth control rate is above 85%). Moreover, the “Activity level … Conyza japonica” value in experiment [6] (setting [10]) was 4 (Level 4: growth control rate is greater than or equal to 60% and less than 85%).

Consider `COC(=O)C12CCCC1C(c1cc(-n3c(=O)cc(C(F)(F)F)n(C)c3=O)c(F)cc1Cl)=NO2` (centres unmarked) [Compound 209], for which the “Activity level … Beckmannia syzigachne” value in experiment [1] was 5 (Level 5: growth control rate is above 85%). In addition, the “Activity level … Capsella bursa-pastoris” value in experiment [2] was 5 (Level 5: growth control rate is above 85%). Moreover, in experiment [3], the “Activity level … Digitaria sanguinalis” value is given as 5 (Level 5: growth control rate is above 85%). Further, the “Activity level … Setaria viridis” value in experiment [4] is listed as 5 (Level 5: growth control rate is above 85%). Also, the “Activity level … Alopecurus japonicus” value in experiment [5] is 5 (Level 5: growth control rate is above 85%). Moreover, the “Activity level … Conyza japonica” value in experiment [6] (setting [9]) was 4 (Level 4: growth control rate is greater than or equal to 60% and less than 85%); in experiment [6] (setting [10]) it was 5 (Level 5: growth control rate is above 85%). In addition, the “Activity level … Eleusine indica” value in experiment [7] is listed as 5 (Level 5: growth control rate is above 85%). For the same compound, the “Activity level … Rorippa indica” value in experiment [8] was 5 (Level 5: growth control rate is above 85%).

On to `COC(=O)C12CCCC1C(c1cc(-n3c(=S)cc(C(F)(F)F)n(C)c3=O)c(F)cc1Cl)=NO2` (centres unmarked) [Compound 498], for which the “Activity level … Beckmannia syzigachne” value in experiment [1] is reported as 5 (Level 5: growth control rate is above 85%). Besides, in experiment [2], the “Activity level … Capsella bursa-pastoris” value is 5 (Level 5: growth control rate is above 85%). Moreover, the “Activity level … Alopecurus japonicus” value in experiment [5] is 5 (Level 5: growth control rate is above 85%). For the same compound, the “Activity level … Conyza japonica” value in experiment [6] (setting [10]) was 4 (Level 4: growth control rate is greater than or equal to 60% and less than 85%).

As for `CCOC(=O)C1(C)CC(c2cc(-n3c(=O)n(C)c(=S)n(C)c3=O)c(F)cc2Cl)=NO1` (centres unmarked) [Control compound A, reference compound], the “Activity level … Digitaria sanguinalis” value in experiment [3] was 2 (Level 2: growth control rate is greater than or equal to 20% and less than 40%). For the same compound, the “Activity level … Setaria viridis” value in experiment [4] was 2 (Level 2: growth control rate is greater than or equal to 20% and less than 40%). Further, in experiment [6] (setting [9]), the “Activity level … Conyza japonica” value was 2 (Level 2: growth control rate is greater than or equal to 20% and less than 40%). In addition, the “Activity level … Eleusine indica” value in experiment [7] is 3 (Level 3: growth control rate is greater than or equal to 40% and less than 60%). For the same compound, in experiment [8], the “Activity level … Rorippa indica” value was 2 (Level 2: growth control rate is greater than or equal to 20% and less than 40%).

On to `Cn1c(C(F)(F)F)cc(=O)n(-c2cc(C3=NOC4(C(=O)OCC5CCCO5)CCCC34)c(Cl)cc2F)c1=O` (centres unmarked) [Compound 261], for which the “Activity level … Beckmannia syzigachne” value in experiment [1] was 5 (Level 5: growth control rate is above 85%). The “Activity level … Capsella bursa-pastoris” value in experiment [2] is recorded as 5 (Level 5: growth control rate is above 85%). Besides, the “Activity level … Alopecurus japonicus” value in experiment [5] is 5 (Level 5: growth control rate is above 85%). Besides, the “Activity level … Conyza japonica” value in experiment [6] (setting [10]) was 4 (Level 4: growth control rate is greater than or equal to 60% and less than 85%).

`COC(=O)C12CCC(C)C1C(c1cc(-n3c(=O)cc(C(F)(F)F)n(C)c3=O)c(F)cc1Cl)=NO2` (centres unmarked) [Compound 443]: in experiment [1], the “Activity level … Beckmannia syzigachne” value was 5 (Level 5: growth control rate is above 85%). Besides, the “Activity level … Capsella bursa-pastoris” value in experiment [2] is on record as 5 (Level 5: growth control rate is above 85%). Besides, the “Activity level … Alopecurus japonicus” value in experiment [5] is 5 (Level 5: growth control rate is above 85%). Moreover, the “Activity level … Conyza japonica” value in experiment [6] (setting [10]) was 4 (Level 4: growth control rate is greater than or equal to 60% and less than 85%).

As for `CC(C)=NOC(=O)C12CCCC1C(c1cc(-n3c(=O)n(C)c(=S)n(C)c3=O)c(F)cc1Cl)=NO2` (centres unmarked) [Compound 66], the “Activity level … Beckmannia syzigachne” value in experiment [1] was 4 (Level 4: growth control rate is greater than or equal to 60% and less than 85%). For the same compound, the “Activity level … Capsella bursa-pastoris” value in experiment [2] is on record as 5 (Level 5: growth control rate is above 85%). For the same compound, the “Activity level … Alopecurus japonicus” value in experiment [5] is 5 (Level 5: growth control rate is above 85%). Moreover, in experiment [6] (setting [10]), the “Activity level … Conyza japonica” value was 4 (Level 4: growth control rate is greater than or equal to 60% and less than 85%).

Turning to `COC(=O)C12CCCC1C(c1cc(-n3c(=O)n(C)c(=S)n(C)c3=O)c(F)cc1Cl)=NO2` (centres unmarked) [Compound 2], in experiment [1], the “Activity level … Beckmannia syzigachne” value is on record as 5 (Level 5: growth control rate is above 85%). In experiment [2], the “Activity level … Capsella bursa-pastoris” value is listed as 5 (Level 5: growth control rate is above 85%). The “Activity level … Alopecurus japonicus” value in experiment [5] is recorded as 5 (Level 5: growth control rate is above 85%). Besides, the “Activity level … Conyza japonica” value in experiment [6] (setting [10]) is 5 (Level 5: growth control rate is above 85%).

As to `COC(=O)C12CCCC1C(c1cc(-n3c(=O)cc(C(F)(F)F)n(C)c3=O)c(F)cc1Br)=NO2` (centres unmarked) [Compound 210], the “Activity level … Beckmannia syzigachne” value in experiment [1] is 5 (Level 5: growth control rate is above 85%). In addition, the “Activity level … Capsella bursa-pastoris” value in experiment [2] is 5 (Level 5: growth control rate is above 85%). The “Activity level … Alopecurus japonicus” value in experiment [5] is 5 (Level 5: growth control rate is above 85%). Also, the “Activity level … Conyza japonica” value in experiment [6] (setting [10]) is 5 (Level 5: growth control rate is above 85%).

Consider `COC(=O)C12CCC(F)C1C(c1cc(-n3c(=O)cc(C(F)(F)F)n(C)c3=O)c(F)cc1Cl)=NO2` (centres unmarked) [Compound 441], for which, in experiment [1], the “Activity level … Beckmannia syzigachne” value was 4 (Level 4: growth control rate is greater than or equal to 60% and less than 85%). Also, the “Activity level … Capsella bursa-pastoris” value in experiment [2] is 5 (Level 5: growth control rate is above 85%). The “Activity level … Alopecurus japonicus” value in experiment [5] was 4 (Level 4: growth control rate is greater than or equal to 60% and less than 85%). In addition, the “Activity level … Conyza japonica” value in experiment [6] (setting [10]) is 4 (Level 4: growth control rate is greater than or equal to 60% and less than 85%).
